Measurements reported in patent US6599925B2 (Wyeth, priority 2001, dated 2003).

Assays:
human PAI-1 = human PAI-1 (Homo sapiens, UniProt P05121); assay: Assay for determining IC50 of inhibition of PAI-1 (Antibody Assay); type: binding; conditions: footnote a: determined by the Antibody Assay; active PAI-1 bound to tPA-coated plate, pH 7.5
Experimental: Assay for Determining IC50 of Inhibition of PAI-1
This assay is based upon the non-SDS dissociable interaction between tPA and active PAI-1. Assay plates are initially coated with human tPA (10 μg/ml). Test compounds are dissolved in DMSO at 10 mM, then diluted with physiologic buffer (pH 7.5) to a final concentration of 1-50 μM. The test compounds are incubated with human PAI-1 (50 ng/ml) for 15 minutes at room temperature. The tPA-coated plate is washed with a solution of 0.05% Tween 20 and 0.1% BSA, then the plate is blocked with a solution of 3% BSA. An aliquot of the test compound/PAI-1 solution is then added to the tPA-coated plate, incubated at room temperature for 1 hour, and washed. Active PAI-1 bound to the plate is assessed by adding an aliquot of a 1:1000 dilution of the 33B8 monoclonal antibody against human PAI-1, and incubating the plate at room temperature for 1 hour (Molecular Innovations, Royal Oak, Mich.). The plate is again washed, and a solution of goat anti-mouse IgG-alkaline phosphatase conjugate is added at a 1:50,000 dilution in goat serum. The plate is incubated 30 minutes at room temperature, washed, and a solution of alkaline phosphatase substrate is added. The plate is incubated 45 minutes at room temperature, and color development is determined at OD405nm. The quantitation of active PAI-1 bound to tPA at varying concentrations of the test compound is used to determine the IC50. Results are analyzed using a logarithmic best-fit equation. The assay sensitivity is 5 ng/ml of human PAI-1 as determined from a standard curve ranging from 0-100 ng/ml.

human PAI-1, sequence (P05121 24-402): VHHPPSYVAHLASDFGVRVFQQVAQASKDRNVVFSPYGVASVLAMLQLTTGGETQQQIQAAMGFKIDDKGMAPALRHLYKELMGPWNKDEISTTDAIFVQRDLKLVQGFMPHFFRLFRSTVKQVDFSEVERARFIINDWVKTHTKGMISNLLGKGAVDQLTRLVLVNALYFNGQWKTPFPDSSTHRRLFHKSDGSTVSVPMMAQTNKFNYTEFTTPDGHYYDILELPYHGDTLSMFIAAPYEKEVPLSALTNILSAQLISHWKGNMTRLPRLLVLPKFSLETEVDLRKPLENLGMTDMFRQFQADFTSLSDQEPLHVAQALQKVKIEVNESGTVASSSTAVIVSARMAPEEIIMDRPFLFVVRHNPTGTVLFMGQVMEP

SMILES	melting point	IC50 (human PAI-1)
CCCCC(=O)c1c(-c2ccc3c(-c4ccccc4)c(OCC(=O)[O-])ccc3c2)oc2ccccc12.[Na+] [Example 14, 2-{[6-(3-Pentanoyl-1-benzofuran-2-yl)-1-phenyl-2-naphthyl]oxy}acetic acid, sodium salt]	272 to 273 °C (dec.)	2.7 µM
CCCCC(=O)c1c(-c2ccc3c(-c4ccccc4)c(OCc4nnn[nH]4)ccc3c2)oc2ccccc12 [Example 16, 1-{2-[5-Phenyl-6-(1H1,2,3,4-tetraazol-5-ylmethoxy)-2-naphthyl]-1-benzofuran-3-yl}-1-pentanone]	160 to 164 °C	10 µM
CCCCC(=O)c1c(-c2ccc3c(C)c(OC(Cc4ccccc4)C(=O)[O-])ccc3c2)oc2ccccc12.[Na+] (centres unmarked) [Example 23, 2-{[1-Methyl-6-(3-pentanoyl-1-benzofuran-2-yl)-2-naphthyl]oxy}-3-phenylpropanoic acid, sodium salt]	221 to 222 °C	12.4 µM
CC(C)CC(=O)c1c(-c2ccc3c(Br)c(OCc4nnn[nH]4)ccc3c2)oc2ccccc12 [Example 9, 1-{2-[5-Bromo-6-(1H-1,2,3,4-tetraazol-5-ylmethoxy)-2-naphthyl]-1-benzofuran-3-yl}-3-methyl-1-butanone]	176 to 177 °C	18.7 µM
O=C(O)COc1ccc2cc(-c3oc4ccccc4c3-c3ccccc3)ccc2c1-c1ccccc1 [Example 29, {[1-Phenyl-6-(3-phenyl-1-benzofuran-2-yl)-2-naphthyl]oxy}acetic acid]	202 to 203 °C	3.85 µM
CCCCC(=O)c1c(-c2ccc3cc(OC(Cc4ccccc4)C(=O)O)ccc3c2)oc2ccccc12 (centres unmarked) [Example 4, 2-{[6-(3-Pentanoyl-1-benzofuran-2-yl)-2-naphthyl]oxy}-3-phenylpropanoic acid]	144 to 145 °C	16.6 µM
CC(C)(C)CC(=O)c1c(-c2ccc3cc(OCC(=O)O)ccc3c2)oc2ccccc12 [Example 6, 2-({6-[3-(3,3-Dimethylbutanoyl)-1-benzofuran-2-yl]-2-naphthyl}oxy)acetic acid]	207 to 209 °C	8.7 µM
O=C(CC1CCCC1)c1c(-c2ccc3c(Br)c(OCc4nnn[nH]4)ccc3c2)oc2ccccc12 [Example 13, 1-{2-[5-Bromo-6-(1H-1,2,3,4-tetraazol-5-ylmethoxy)-2-naphthyl]-1-benzofuran-3-yl}-2-cyclopentyl-1-ethanone]	186 to 187 °C	10.1 µM
CCCCC(=O)c1c(-c2ccc3c(Cl)c(OCc4nnn[nH]4)ccc3c2)oc2ccccc12 [Example 25, 1-{2-[5-Chloro-6-(1H-1,2,3,4-tetraazol-5-ylmethoxy)-2-naphthyl]-1-benzofuran-3-yl}-1-pentanone]	168 to 169 °C	14 µM
CCCCCc1c(-c2ccc3c(Br)c(OCC(=O)O)ccc3c2)oc2ccccc12 [Example 36, [1-Bromo-6-(3-pentyl-benzofuran-2-yl)-naphthalen-2-yloxy]-acetic acid]	159 to 161 °C	6.54 µM
